Data from US20240408064A1, “RAS INHIBITORS, COMPOSITIONS AND METHODS OF USE THEREOF” (GENETOLEAD INC., priority 2021, published 2024).
Values joined by “and” are separate entries in the source; they are usually repeats but may differ in a detail not shown here. Equal values may be shown once. “Also recorded” adds a separate entry of the source.

Assays:
[1] = target: T1, HRas^G12V (Homo sapiens (Human), UniProt P01112, G12V); assay: 19F DLB (ligand-observed 19F NMR) score; format: binding; parameters: scale not given here
Method in brief: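 Fragments were pooled at 240 μM each with 50 μM HRas G12V in 25 mM sodium phosphate pH 7.4, 150 mM NaCl, 5 mM MgCl2, 1 mM TCEP-d16, 10% D2O, and screened by 1H-decoupled 1D 19F NMR at 600 MHz (64 scans, 5 s relaxation delay). T2-CPMG data were collected with 1 ms echoes and eight delays from 1 to 800 ms.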

[2] = target: GDP-HRas^G12V (Homo sapiens (Human), UniProt P01112, G12V); assay: Dissociation constant by microscale thermophoresis (MST); format: binding
Procedure: MST experiments were performed with a Monolith NT.115 Pico (NanoTemper Technologies, Munich, Germany). […] Data was acquired in PBS buffer with 0.1% pluronic acid. Data was analyzed with the NanoTemper MO.Affinity Analysis software.

[3] = target: T1, HRas^G12V; assay: Overall binding/activity in the various assays (NMR consensus binding)
Method in brief: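 Fragments (240 µM each, pooled) screened against 50 µM HRas^G12V in 25 mM sodium phosphate pH 7.4, 150 mM NaCl, 5 mM MgCl2, 1 mM TCEP-d16 by 1H-decoupled 1D 19F NMR. Hits confirmed by ligand- and protein-observed 1D 1H, STD and T2-CPMG (aggregation check); consensus binding ranked, with 15N HSQC for sites and Kd.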

[4] = target: KRAS^G12D-GDP (Homo sapiens (Human), UniProt P01116, G12D); assay: 19F T2-CPMG score, KRAS^G12D-GDP; format: binding
Sequence of KRAS^G12D-GDP (P01116-2 other isoform, or with tags, fused parts or gaps G12D): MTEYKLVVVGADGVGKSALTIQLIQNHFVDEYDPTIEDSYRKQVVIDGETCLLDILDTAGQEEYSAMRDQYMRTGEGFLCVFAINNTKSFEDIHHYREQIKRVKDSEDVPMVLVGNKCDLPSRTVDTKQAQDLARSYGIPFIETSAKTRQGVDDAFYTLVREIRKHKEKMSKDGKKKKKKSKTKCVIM
Procedure: Since the fragment library was curated using phosphate buffer, 25 mM sodium phosphate pH 7.4, 150 mM NaCl, 5 mM MgCl2, 1 mM TCEP-d16, 10% D2O Fresh TCEP was used for experiments. Screening was performed using ^1H-decoupled 1D ^19F experiment Bruker experiment (zgfhigqn.2) with 64 scans and a relaxation delay of 5 seconds. 50 μM HRas^G12V and 240 μM of each fragment in pools (mixtures) were used.
Hit confirmation was performed using the same ^19F experiment as the screen. Ligand-observed 1D ^1H, protein-observed 1D ^1H, ^1H T2-CPMG as well as Saturation Transfer Difference (STD) experiments were also run on the same samples. Ligand-observed 1D ^1H was run using the standard Bruker sequence with excitation sculpting (zgesgp) with a relaxation delay of 10 seconds and 16 scans per spectrum. Protein-observed 1D ^1H was performed using the same sequence with a relaxation delay of 1 second and 256 scans in order to increase the signal-to-noise of the protein resonances, while keeping the experimental time relatively short. The ^1H T2-CPMG experiment employed a modified version of the Bruker 1D ^1H zgesgp experiment with the addition of a CPMG pulse train after the first 90° excitation pulse. Total duration for each spin echo was fixed at 1 ms (τ=500 μs), while the number of echoes in the pulse train was varied according to the total time (T). The number of scans for each spectrum was 4 and eight delay times were run on each sample, ranging from 1 ms to 800 ms.
The activity of compounds of the invention regarding KRAS^G12D-GDP was measured in the same as in Example 80. The results obtained with the compounds in the various assays described above are depicted in Table 23.

[5] = target: T1, HRas^G12V; assay: Dissociation constant by NMR (1H/15N Fast-HSQC, 1H 1D protein-observed); format: binding; conditions: HRas^G12V; read-out: NMR Kd
Procedure: All NMR experiments were collected using 3 mm NMR tubes on a 600 MHz Bruker Avance III spectrometer equipped with a QCI helium cryoprobe and a SampleJet sample changer. The buffer used for NMR experiments was 25 mM sodium phosphate pH 7.4, 150 mM NaCl, 5 mM MgCl2, 1 mM TCEP-d16, 10% D2O. Data were processed using Bruker TopSpin.
^1H/^15N Fast-HSQC experiments (Mori et al., Journal of Magnetic Resonance, Series B, Volume 108, Issue 1, July 1995, Pages 94-98) were recorded at a protein concentration of 50-100 μM.
Dissociation constants were obtained by monitoring changes in chemical shifts as a function of ligand concentration. The changes in chemical shifts (d) were calculated according to the following equation (Williamson, Progress in Nuclear Magnetic Resonance Spectroscopy, Volume 73, August 2013, Pages 1-16): d=√(1/2[δ_H^2+[…]]), Where δ are the changes in chemical shift in ppm for ^1H and ^15N and the correction factor (α) was set at 0.15.
^1H 1D protein-observed experiments were recorded with 15-50 μM protein. The standard Bruker 1D ^1H sequence with excitation sculpting (zgesgp) was employed. A relaxation delay of 1 s was employed in order to use 256 scans while still keeping experimental time fairly short. Changes in protein chemical shift or peak intensity in the methyl region were monitored against compound concentration.

SMILES | 19F DLB Score [1] | Kd [2] [µM] | Activity ranking on HRas^G12V (in words) [3] | 19F T2-CPMG Score [4] | Kd [5] [µM]
CN(C)CC(=O)Nc1cccc(NC(=O)Cc2c[nH]c3cc(F)ccc23)c1 [compound 10097] | 3.84 | 65 to 82.9 | More active; also recorded: Most active | >LOQ | 108
CN(C)CCOc1cccc(NC(=O)Cc2c[nH]c3cc(F)ccc23)c1 [Compound 10095, N-(3-(2-(dimethylamino)ethoxy)phenyl)-2-(6-fluoro-1H-indol-3-yl)acetamide] | 4.19 | 19.1 to 23.5 | More active; also recorded: Most active | >LOQ | 36
O=C(Cc1c[nH]c2cc(F)ccc12)N1CCC(O)CC1 [Compound 10086] | 3.04 | 1810 to 2080 | More active | >LOQ | 2370 to 4000
CC(C)N1CCC(NC(=O)Cc2c[nH]c3cc(F)ccc23)CC1 [Compound 10018] | 1.64 and 1.79 and 1.93 and 1.86 and 1.71 | – | More active | 12.20 | 3030 to 3700
